How the values were obtained:
Format in all cases: in vivo
[1] = tested on: redroot pigweed (Amaranthus retroflexus, AMARE); assay: Pre-emerge test, greenhouse herbicide activity screening; details: pre-emerge, rated 14 days after application, 0 = no damage, 100 = complete death
How it was run: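 Herbicidal damage is scored 0 (none) to 100 (complete plant death) two weeks after a simulated field spray. Rates span 15–1000 g ai/ha, delivered in acetone at 187 l/ha. For post-emergence treatments, plants have 2–3 leaves and the spray carries 0.25% v/v non-ionic surfactant.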

[2] = tested on: upland rice (Oryza sp., var. Tebonnet, RICE); assay: Post-emerge test, crop safety; details: phytotoxicity rating 0-100 (0 no damage, 100 complete death), 14 days after application
How it was run: (§1)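 Compounds in acetone were track-sprayed at 15-1000 g ai/ha (187 l/ha) on sandy loam pots: pre-emerge one day after seeding, post-emerge at 2-3 leaf stage with 0.25% v/v non-ionic surfactant. Phytotoxicity was rated 14 days later on a 0 (no damage) to 100 (complete death) scale.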

[3] = tested on: field corn (Zea mays L., var. Dekalb 535, CORN); assay: Post-emerge test, crop safety; details: phytotoxicity rating 0-100 (0 no damage, 100 complete death), 14 days after application
How it was run: as §1

[4] = tested on: upland rice (Oryza sp., var. Tebonnet, RICE); assay: Pre-emerge test, crop safety; details: pre-emerge, rated 14 days after application, 0 = no damage, 100 = complete death
How it was run: (§2)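 Plants grown in 10 cm pots of sandy loam mix received acetone-dissolved compounds through a moving flat-fan nozzle. Doses ranged from 15 to 1000 g ai/ha. Pre-emerge pots were seeded one day earlier, post-emerge pots 8–21 days earlier. Fourteen days on, each pot was graded 0–100 for damage.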

[5] = tested on: field corn (Zea mays L., var. Dekalb 535, CORN); assay: Pre-emerge test, crop safety; details: pre-emerge, rated 14 days after application, 0 = no damage, 100 = complete death
How it was run: as §2

[6] = tested on: ivyleaf morningglory (Ipomoea hederacea, IPOHE); assay: Pre-emerge test, greenhouse herbicide activity screening; details: pre-emerge, rated 14 days after application, 0 = no damage, 100 = complete death
How it was run: as §1

[7] = tested on: green foxtail (Setaria viridis, SETVI); assay: as above; details: pre-emerge, rated 14 days after application, 0 = no damage, 100 = complete death
How it was run: as §1

[8] = tested on: barnyardgrass (Echinochloa crus-galli, ECHCG); assay: as above; details: pre-emerge, rated 14 days after application, 0 = no damage, 100 = complete death
How it was run: as §1

[9] = tested on: johnsongrass (Sorghum halepense, SORHA); assay: as above; details: pre-emerge, rated 14 days after application, 0 = no damage, 100 = complete death
How it was run: as §1

[10] = tested on: lambsquarters (Chenopodium album, CHEAL); assay: as above; details: pre-emerge, rated 14 days after application, 0 = no damage, 100 = complete death
How it was run: as §1

[11] = tested on: sicklepod (Cassia obtusifolia, CASOB); assay: as above; details: pre-emerge, rated 14 days after application, 0 = no damage, 100 = complete death
How it was run: as §1

[12] = tested on: large crabgrass (Digitaria sanguinalis, DIGSA); assay: as above; details: pre-emerge, rated 14 days after application, 0 = no damage, 100 = complete death
How it was run: as §1

[13] = tested on: velvetleaf (Abutilon theophrasti, ABUTH); assay: as above; details: pre-emerge, rated 14 days after application, 0 = no damage, 100 = complete death
How it was run: as §1

[14] = tested on: ivyleaf morningglory (Ipomoea hederacea, IPOHE); assay: Post-emerge test, greenhouse herbicide activity screening; details: phytotoxicity rating 0-100 (0 no damage, 100 complete death), 14 days after application
How it was run: (§3)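 Compounds in acetone were track-sprayed at 15–1000 g ai/ha: pre-emergence onto soil sown the previous day, then top-watered to incorporate and later bottom-watered; post-emergence onto 2–3 leaf plants with 0.25% v/v surfactant, bottom-watered only. Ratings on a 0–100 phytotoxicity scale were taken at day 14.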

[15] = tested on: green foxtail (Setaria viridis, SETVI); assay: as above; details: phytotoxicity rating 0-100 (0 no damage, 100 complete death), 14 days after application
How it was run: as §3

[16] = tested on: barnyardgrass (Echinochloa crus-galli, ECHCG); assay: as above; details: phytotoxicity rating 0-100 (0 no damage, 100 complete death), 14 days after application
How it was run: as §3

[17] = tested on: johnsongrass (Sorghum halepense, SORHA); assay: as above; details: phytotoxicity rating 0-100 (0 no damage, 100 complete death), 14 days after application
How it was run: as §3

[18] = tested on: lambsquarters (Chenopodium album, CHEAL); assay: as above; details: phytotoxicity rating 0-100 (0 no damage, 100 complete death), 14 days after application
How it was run: as §3

[19] = tested on: redroot pigweed (Amaranthus retroflexus, AMARE); assay: as above; details: phytotoxicity rating 0-100 (0 no damage, 100 complete death), 14 days after application
How it was run: as §3

[20] = tested on: common ragweed (Ambrosia artemisizfolia L., AMBEL); assay: as above; details: phytotoxicity rating 0-100 (0 no damage, 100 complete death), 14 days after application
How it was run: as §3

[21] = tested on: sicklepod (Cassia obtusifolia, CASOB); assay: as above; details: phytotoxicity rating 0-100 (0 no damage, 100 complete death), 14 days after application
How it was run: as §3

[22] = tested on: large crabgrass (Digitaria sanguinalis, DIGSA); assay: as above; details: phytotoxicity rating 0-100 (0 no damage, 100 complete death), 14 days after application
How it was run: as §3

[23] = tested on: velvetleaf (Abutilon theophrasti, ABUTH); assay: as above; details: phytotoxicity rating 0-100 (0 no damage, 100 complete death), 14 days after application
How it was run: as §3

For `COc1c(Cl)cc(F)c(-n2c(=O)cc(C(F)(F)F)n(C)c2=O)c1N=C(Cl)C(Cl)(Cl)Cl` [Compound 1-30], which “Pre-emerge Herbicidal Activity AMARE (phytotoxicity rating, scale 0-100)” value ([1]; 63 g ai/ha) is on record?
The value was 0.

What about the “Pre-emerge Herbicidal Activity AMARE (phytotoxicity rating, scale 0-100)” value ([1]; 250 g ai/ha) of the same compound?
The value was 60.

What about the “Post-emerge Herbicidal Activity RICE (crop damage)” value ([2]; 63 g ai/ha) of the same compound?
Its value is 0.

And the “Post-emerge Herbicidal Activity RICE (crop damage)” value ([2]; 250 g ai/ha)?
Its value is 20.

What about the “Post-emerge Herbicidal Activity CORN (crop damage)” value ([3]; 63 g ai/ha) of the same compound?
Its value is 0.

And the “Post-emerge Herbicidal Activity CORN (crop damage)” value ([3]; 250 g ai/ha)?
Its value is 10.

What about the “Pre-emerge crop damage RICE (phytotoxicity rating, scale 0-100)” value ([4]; 63 g ai/ha) of the same compound?
Its value is 10.

What about the “Pre-emerge crop damage RICE (phytotoxicity rating, scale 0-100)” value ([4]; 250 g ai/ha) of the same compound?
The value was 30.

And the “Pre-emerge crop damage CORN (phytotoxicity rating, scale 0-100)” value ([5]; 63 g ai/ha)?
The value was 0.

And the “Pre-emerge crop damage CORN (phytotoxicity rating, scale 0-100)” value ([5]; 250 g ai/ha)?
Its value is 10.

And the “Pre-emerge Herbicidal Activity IPOHE (phytotoxicity rating, scale 0-100)” value ([6]; 63 g ai/ha)?
The value was 0.

What about the “Pre-emerge Herbicidal Activity IPOHE (phytotoxicity rating, scale 0-100)” value ([6]; 250 g ai/ha) of the same compound?
Its value is 70.

What about the “Pre-emerge Herbicidal Activity SETVI (phytotoxicity rating, scale 0-100)” value ([7]; 63 g ai/ha) of the same compound?
Its value is 10.

What about the “Pre-emerge Herbicidal Activity SETVI (phytotoxicity rating, scale 0-100)” value ([7]; 250 g ai/ha) of the same compound?
The value was 100.

And the “Pre-emerge Herbicidal Activity ECHCG (phytotoxicity rating, scale 0-100)” value ([8]; 63 g ai/ha)?
Its value is 0.

And the “Pre-emerge Herbicidal Activity ECHCG (phytotoxicity rating, scale 0-100)” value ([8]; 250 g ai/ha)?
Its value is 0.

And the “Pre-emerge Herbicidal Activity SORHA (phytotoxicity rating, scale 0-100)” value ([9]; 63 g ai/ha)?
Its value is 0.

And the “Pre-emerge Herbicidal Activity SORHA (phytotoxicity rating, scale 0-100)” value ([9]; 250 g ai/ha)?
Its value is 10.

What about the “Pre-emerge Herbicidal Activity CHEAL (phytotoxicity rating, scale 0-100)” value ([10]; 63 g ai/ha) of the same compound?
The value was 85.

What about the “Pre-emerge Herbicidal Activity CHEAL (phytotoxicity rating, scale 0-100)” value ([10]; 250 g ai/ha) of the same compound?
The value was 100.

What about the “Pre-emerge Herbicidal Activity CASOB (phytotoxicity rating, scale 0-100)” value ([11]; 63 g ai/ha) of the same compound?
The value was 0.

And the “Pre-emerge Herbicidal Activity CASOB (phytotoxicity rating, scale 0-100)” value ([11]; 250 g ai/ha)?
The value was 70.

What about the “Pre-emerge Herbicidal Activity DIGSA (phytotoxicity rating, scale 0-100)” value ([12]; 63 g ai/ha) of the same compound?
The value was 0.

And the “Pre-emerge Herbicidal Activity DIGSA (phytotoxicity rating, scale 0-100)” value ([12]; 250 g ai/ha)?
Its value is 90.

And the “Pre-emerge Herbicidal Activity ABUTH (phytotoxicity rating, scale 0-100)” value ([13]; 63 g ai/ha)?
The value was 50.

What about the “Pre-emerge Herbicidal Activity ABUTH (phytotoxicity rating, scale 0-100)” value ([13]; 250 g ai/ha) of the same compound?
The value was 100.

And the “Post-emerge Herbicidal Activity IPOHE” value ([14]; 63 g ai/ha)?
Its value is 20.

And the “Post-emerge Herbicidal Activity IPOHE” value ([14]; 250 g ai/ha)?
Its value is 100.

What about the “Post-emerge Herbicidal Activity SETVI” value ([15]; 63 g ai/ha) of the same compound?
Its value is 0.

And the “Post-emerge Herbicidal Activity SETVI” value ([15]; 250 g ai/ha)?
The value was 0.

And the “Post-emerge Herbicidal Activity ECHCG” value ([16]; 63 g ai/ha)?
Its value is 0.

And the “Post-emerge Herbicidal Activity ECHCG” value ([16]; 250 g ai/ha)?
Its value is 0.

What about the “Post-emerge Herbicidal Activity SORHA” value ([17]; 63 g ai/ha) of the same compound?
The value was 0.

And the “Post-emerge Herbicidal Activity SORHA” value ([17]; 250 g ai/ha)?
Its value is 0.

What about the “Post-emerge Herbicidal Activity CHEAL” value ([18]; 63 g ai/ha) of the same compound?
The value was 0.

And the “Post-emerge Herbicidal Activity CHEAL” value ([18]; 250 g ai/ha)?
Its value is 60.

And the “Post-emerge Herbicidal Activity AMARE” value ([19]; 63 g ai/ha)?
Its value is 10.

What about the “Post-emerge Herbicidal Activity AMARE” value ([19]; 250 g ai/ha) of the same compound?
The value was 30.

And the “Post-emerge Herbicidal Activity AMBEL” value ([20]; 63 g ai/ha)?
Its value is 0.

And the “Post-emerge Herbicidal Activity AMBEL” value ([20]; 250 g ai/ha)?
Its value is 70.

What about the “Post-emerge Herbicidal Activity CASOB” value ([21]; 63 g ai/ha) of the same compound?
Its value is 0.

And the “Post-emerge Herbicidal Activity CASOB” value ([21]; 250 g ai/ha)?
Its value is 30.

What about the “Post-emerge Herbicidal Activity DIGSA” value ([22]; 63 g ai/ha) of the same compound?
The value was 0.

And the “Post-emerge Herbicidal Activity DIGSA” value ([22]; 250 g ai/ha)?
Its value is 0.

What about the “Post-emerge Herbicidal Activity ABUTH” value ([23]; 63 g ai/ha) of the same compound?
Its value is 30.

What about the “Post-emerge Herbicidal Activity ABUTH” value ([23]; 250 g ai/ha) of the same compound?
Its value is 100.
